Experimental data from US10294226B2, “Small molecule inhibitors of the JAK family of kinases” (Janssen Pharmaceutica NV, priority 2016, dated 2019).
Values after ≈ are worked out from the molar mass of the structure shown.

Columns and labels:
MDCK-MDR1 cell line = test: MDCK-MDR1 permeability assay; type: in vitro ADME; conditions: for MDCK-MDR1 Papp(A-B): without elacridar; for MDCK-MDR1 Papp(B-A): basolateral to apical; for Papp(B-A)/Papp(A-B) efflux ratio: MDCK-MDR1, @ 5 μM
Experimental: Permeability measurements were conducted according to the Cyprotex protocol using the MDCK-MDR1 cell line obtained from the NIH (Rockville, Md., USA). […] The cells in this assay form a cohesive sheet of a single cell layer filing the surface area of the culture dish, also known as a confluent monolayer, and on day four the test compound was added to the apical side of the membrane and the transport of the compound across the monolayer was monitored over a time period of 60 min.
Test compounds were dissolved in DMSO at a concentration of 10 mM. The dosing solutions were prepared by diluting test compound with assay buffer (Hanks Balanced Salt Solution), pH 7.4, at a final concentration of 5 μM. For assessment of apical to basolateral (“A-B”) permeability, buffer was removed from the apical compartment and replaced with test compound dosing solution with or without the permeability glycoprotein (“PgP”, “P-gP”, “Pgp” or “P-gp”) inhibitor elacridar (2 μM). For assessment of basolateral to apical (“B-A”) permeability, buffer was removed from the companion plate and replaced with test compound dosing solution. Incubations were carried out in duplicate at 37° C. in an atmosphere of 5% CO2 with a relative humidity of 95%. […] After incubation for 60 minutes, apical and basolateral samples were diluted and test compounds quantified by LC/MS/MS using an 8-point calibration in the range 0.0039 to 3 μM with appropriate dilution of the samples (receiver dilution factor=1; donor and C0 dilution factor=10). The permeability coefficient (Papp) for each compound was calculated from the following equation: Papp=(dQ/dt)/(C0×S), where dQ/dt is the rate of permeation of the drug across the cells, C0 is the donor compartment concentration at time zero, and S is the area of the cell monolayer.
The percent recovery was measured for all incubation conditions.
Papp(A-B) gives an indication of permeation extent across the cells in this assay, which is envisaged to model the transcellular transport across Pgp-expressing cells, such as Pgp-expressing gastrointestinal tract cells.
The integrity of each monolayer was monitored by examining the permeation of lucifer yellow by fluorimetric analysis.

physchem = conditions: pH 6.5, fassif, thermodynamic from solid
[1] = In vivo intracolonic (i.c.) dosing, plasma and colon concentrations (Protocol 3); parameters: species or system female C57BL/6 mice; key to Plasma Concentration After i.c. Dosing, Mean: ^: Mean was not calculated as the values for all three mice were below the lower limit of quantitation; conditions: mice; for Plasma Concentration After i.c. Dosing, Mean: 5 mg/kg i.c.
From the text: Plasma and colon concentration results were obtained by following Protocol 1 using venipuncture of dorsal metatarsal vein bleed for Compounds (B), (C), and Examples 6 and 11. Plasma and colon concentration results were obtained by following Protocol 2 using retro-orbital bleed for Compounds (A), and Examples 1, and 3-5 and Protocol 2 using venipuncture of the dorsal metatarsal vein for Examples 2, 7-10, and 12. Plasma and colon concentration results were obtained by following Protocol 3 for Examples 1, 3 and 4. These protocols are described below under the heading In vivo Studies.
Intracolonic (IC) dose group: Following anesthesia with isoflurane by inhalation, three non-fasted female C57BL/6 mice were administered the compound intracolonically through a small incision in the abdominal wall using a syringe and needle at a dose of 5 mg/kg as a solution in 20% HPβCD at a dose volume of 1 mL/kg. Blood samples were collected at 0.5, 2, and 4 h post dose via retro-orbital bleed. Blood samples were collected into tubes containing anticoagulant (Heparin-Na) and placed on wet ice. The plasma fraction was separated by centrifugation and frozen at −20° C. for up to 4 h and −80° C. after 4 h unless analyzed shortly after sample collection. Colon samples were collected at 4 h post dose. From 2 cm below the cecum, a 4-cm sample of the colon was dissected, cut open on the longitudinal axis, and the solid contents removed by flushing with 2 mL of saline. The colon was further washed by putting it in 5 mL of saline and shaken for 5 seconds. The colon sample was then patted dry, weighed, and homogenized as 1 part tissue (g) to 4 parts HPLC grade water (mL). Concentrations of the compound in plasma and colon homogenate were determined using a qualified liquid chromatography-triple quadrupole mass spectrometry (LC-MS/MS) method. This protocol was used to evaluate IC dosing of the following test compounds: Examples 1, 3, and 4.

JAK3-JH1JH2 = JAK3-JH1JH2 (Homo sapiens (Human), UniProt P52333); test: Enzymatic inhibition assay (HTMS); type: biochemical; conditions: 150 μM ATP; read-out: JAK3_I_JH1JH2 IC50
From the text: (§1) JAK1-JH1JH2 (574-1154 with a His-GST Tag and a C-terminal tev (ENLYFQ-G) cleavage site), JAK3-JH1JH2 (512-1124 with a GST Tag and a C-terminal tev (ENLYFQ-G) cleavage site), and Tyk2-JH1JH2 (8H_tev_580-1182-C936A-C1142A with a C-terminal tev (ENLYFQ-G) cleavage site) were purified internally. […] LC/MS grade water and acetonitrile (ACN), were purchased from HoneyWell, Burdick & Jackson (Muskegon, Mich., USA). Dimethylsulfoxide 99.8% (DMSO) and trifluoroacetic acid 99.5% (TFA) were purchased from EMD Chemical (Gibbstown, N.J., USA). Adenosine triphosphate (ATP), 4-morpholinepropanesulfonic acid (MOPS), magnesium chloride (MgCl2), ethylenediaminetetraacetic acid (EDTA), dithiothreitol (DTT), formic acid>95% (FA) and Tween-20 were purchased from Sigma (St Louis, Mo., USA). 384-well polypropylene plates, Cat#781280 were purchased from Greiner (Monroe, N.C.), RapidFire™ cartridge A C4 Column (Agilent Technologies, Santa Clara, Calif.).
(§2) The HTMS experiments were performed in positive ionization mode on a RapidFire 300 instrument (Agilent Technologies, Santa Clara, Calif.), coupled with an ABSiex QTrap 4000 system with an Electrospray Ionization source (RF-MS) (Concord, ON, Canada). […] The entire system was operated using the RapidFire software interfaced with Analyst software for the mass spectrometer.
(§3) 11-point dosing series were made for each compound by serially diluting 1:3 or 1:4 in DMSO, with point 12 being a DMSO control. From the serial dilution plates, sample was transferred to a 384 wells assay plate (#781280, Greiner, Monroe, N.C.) using Labcyte Echo (Sunnyvale, Calif.), or Biosero ATS (San Diego, Calif.). The compounds were tested in duplicate. Column 12 was used for positive controls, and column 24 contained negative controls with no enzyme added. A compound from our internal collection, with inhibitory activity for JAK isoforms, was used as a reference compound. The final concentration of DMSO was ≤0.25% in a 20 μL reaction. The enzyme reaction was initiated by the addition of 10 μL of enzyme and ATP mixture to 10 μL of substrate solution prepared in reaction buffer (50 mM MOPS pH 7.5, 10 mM MgCl2, 1 mM EDTA, 2 mM DTT, 0.002% Tween-20). The Tyk2 enzyme was pre-incubated with 2 mM ATP for 30 min prior to the reaction initiation. Immediately after the addition of the enzyme to the reaction mixture, the plate was centrifuged at 1000 rpm for 1 minute and incubated at 25° C. for 45 minutes for JAK3 and 90 minutes for JAK1, JAK2 and Tyk2. The reaction was quenched by the addition of 20 μL of 0.5% TFA containing 0.15 μM of internal standard peptide using Multidrop Combi reagent dispenser (Thermo Scientific, Waltham, Mass.). […] After the quench, the assay plate was centrifuged at 3000 rpm for 3 minutes and sealed with pierceable aluminum foil (Cat#06644-001, Agilent) using a PlateLoc (Agilent Technologies, Santa Clara, Calif.). The plates then were transferred on to the RapidFire for the MS analysis. Compound inhibition was assessed by a decrease of the phosphorylated product levels in sample wells compared to the non-inhibited enzyme reaction.
(§4) The sample analysis on the RapidFire was performed using a mobile phase A1 consisting of Water/TFA/FA (100:0.01:0.1, v/v/v), a mobile phase B1 consisting of ACN/Water/TFA/FA (80:20:0.01:0.1, v/v/v). […] The samples were aspirated directly from the 384-well assay plate and delivered onto RF-MS microscale solid-phase C4 extraction cartridge (Type A). The undesired component such as salt, cofactor, detergent and large protein were washed out and the retained analytes (substrate, product and IS) were coeluted directly onto the AB Siex Qtrap 4000 system.

JAK2-JH1JH2 = JAK2-JH1JH2 (Homo sapiens (Human), UniProt O60674); test: Enzymatic inhibition assay (HTMS); type: biochemical; conditions: 30 μM ATP; read-out: JAK2_I_JH1JH2 IC50
From the text: as §1, §2, §3, §4

JAK1-JH1JH2 = JAK1-JH1JH2 (Homo sapiens (Human), UniProt P23458); test: Enzymatic inhibition assay (HTMS); type: biochemical; conditions: 12.5 μM ATP; read-out: JAK1_JH1JH2 IC50
From the text: as §1, §2, §3, §4

Tyk2-JH1JH2 = Tyk2-JH1JH2 (Homo sapiens (Human), UniProt P29597, C1142A/C936A); test: Enzymatic inhibition assay (HTMS); type: biochemical; conditions: 50 μM ATP; read-out: Tyk2_I_JH1JH2 IC50
From the text: as §1, §2, §3, §4

JAK1-JH1JH2, sequence (P23458 574-1154): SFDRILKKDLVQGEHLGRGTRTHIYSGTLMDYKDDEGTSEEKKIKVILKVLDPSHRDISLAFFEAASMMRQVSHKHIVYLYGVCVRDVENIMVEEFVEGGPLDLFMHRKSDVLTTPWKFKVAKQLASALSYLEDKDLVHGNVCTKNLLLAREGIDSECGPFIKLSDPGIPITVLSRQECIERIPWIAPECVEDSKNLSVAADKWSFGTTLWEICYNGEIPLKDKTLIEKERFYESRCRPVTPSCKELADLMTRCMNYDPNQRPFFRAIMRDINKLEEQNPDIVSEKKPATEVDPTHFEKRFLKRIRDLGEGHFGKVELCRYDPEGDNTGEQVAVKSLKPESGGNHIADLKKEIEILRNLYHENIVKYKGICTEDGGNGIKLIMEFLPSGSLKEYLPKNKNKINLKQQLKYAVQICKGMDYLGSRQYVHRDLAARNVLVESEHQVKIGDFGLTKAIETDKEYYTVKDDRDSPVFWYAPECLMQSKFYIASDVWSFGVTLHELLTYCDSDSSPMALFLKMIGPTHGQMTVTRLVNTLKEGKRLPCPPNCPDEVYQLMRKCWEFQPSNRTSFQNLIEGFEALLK
JAK3-JH1JH2, sequence (P52333 512-1124): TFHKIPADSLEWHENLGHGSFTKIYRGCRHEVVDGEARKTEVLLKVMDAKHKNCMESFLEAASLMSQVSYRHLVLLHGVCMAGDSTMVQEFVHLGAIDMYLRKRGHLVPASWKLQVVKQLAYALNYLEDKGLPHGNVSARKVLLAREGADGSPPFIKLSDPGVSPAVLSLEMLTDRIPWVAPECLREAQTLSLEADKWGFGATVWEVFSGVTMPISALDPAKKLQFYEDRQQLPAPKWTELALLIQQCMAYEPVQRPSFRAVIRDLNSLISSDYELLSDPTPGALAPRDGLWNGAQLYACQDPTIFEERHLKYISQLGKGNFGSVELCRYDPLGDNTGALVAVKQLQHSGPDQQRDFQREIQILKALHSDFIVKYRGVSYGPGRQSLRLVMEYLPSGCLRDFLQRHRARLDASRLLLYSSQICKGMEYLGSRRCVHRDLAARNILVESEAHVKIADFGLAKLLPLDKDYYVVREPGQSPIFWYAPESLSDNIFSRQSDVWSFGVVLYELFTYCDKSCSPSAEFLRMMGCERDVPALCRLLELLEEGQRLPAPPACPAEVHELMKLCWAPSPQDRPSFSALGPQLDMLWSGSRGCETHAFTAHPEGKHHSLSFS
Tyk2-JH1JH2, sequence (P29597 580-1182 C936A/C1142A): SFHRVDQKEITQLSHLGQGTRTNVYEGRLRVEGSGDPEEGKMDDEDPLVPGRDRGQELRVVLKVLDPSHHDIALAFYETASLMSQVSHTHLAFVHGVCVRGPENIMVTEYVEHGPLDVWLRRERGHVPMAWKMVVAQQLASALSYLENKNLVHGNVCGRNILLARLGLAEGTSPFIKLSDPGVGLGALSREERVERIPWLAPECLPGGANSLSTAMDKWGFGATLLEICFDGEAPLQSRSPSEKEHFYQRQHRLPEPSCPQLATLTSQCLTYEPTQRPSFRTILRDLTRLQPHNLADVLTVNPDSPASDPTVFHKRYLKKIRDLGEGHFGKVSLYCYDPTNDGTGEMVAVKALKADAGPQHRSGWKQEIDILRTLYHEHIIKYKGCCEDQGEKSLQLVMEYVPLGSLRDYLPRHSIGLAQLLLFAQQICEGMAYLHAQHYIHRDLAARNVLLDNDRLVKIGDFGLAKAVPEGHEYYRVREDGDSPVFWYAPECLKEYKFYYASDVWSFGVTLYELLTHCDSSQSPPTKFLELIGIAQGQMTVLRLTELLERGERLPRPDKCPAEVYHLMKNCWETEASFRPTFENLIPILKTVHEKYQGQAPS
JAK2-JH1JH2, sequence (O60674 532-1132): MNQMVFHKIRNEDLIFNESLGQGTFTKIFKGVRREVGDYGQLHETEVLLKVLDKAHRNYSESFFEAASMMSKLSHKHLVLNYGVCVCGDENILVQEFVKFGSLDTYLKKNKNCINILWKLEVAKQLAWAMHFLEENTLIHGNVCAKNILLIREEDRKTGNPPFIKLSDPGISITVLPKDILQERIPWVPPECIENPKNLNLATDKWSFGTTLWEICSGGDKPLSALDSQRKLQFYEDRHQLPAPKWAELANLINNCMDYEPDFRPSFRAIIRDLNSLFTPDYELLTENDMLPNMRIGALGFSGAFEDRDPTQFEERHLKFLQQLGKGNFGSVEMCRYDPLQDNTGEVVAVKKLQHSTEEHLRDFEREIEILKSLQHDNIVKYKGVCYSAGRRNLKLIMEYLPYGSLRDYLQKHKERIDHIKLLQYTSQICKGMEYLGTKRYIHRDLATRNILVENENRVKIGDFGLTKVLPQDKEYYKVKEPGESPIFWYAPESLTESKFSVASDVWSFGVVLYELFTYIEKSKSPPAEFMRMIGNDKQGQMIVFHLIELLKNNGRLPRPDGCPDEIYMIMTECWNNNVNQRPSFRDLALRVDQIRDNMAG

SMILES | MDCK-MDR1 Papp(A-B) (MDCK-MDR1 cell line; @ 5 μM, apical to basolateral) | MDCK-MDR1 Papp(B-A) (MDCK-MDR1 cell line; @ 5 μM) | Papp(B-A)/Papp(A-B) efflux ratio (MDCK-MDR1 cell line) | solubility (physchem) [µM] | Plasma Concentration After i.c. Dosing, Mean ([1]; Time = 2 h) | Plasma Concentration After i.c. Dosing, Mean ([1]; Time = 4 h) | systemic exposure after i.c. dosing [1] | IC50 (JAK3-JH1JH2) [nM] | IC50 (JAK2-JH1JH2) [nM] | IC50 (JAK1-JH1JH2) [nM] | IC50 (Tyk2-JH1JH2) [nM] | MDCK-MDR1 P^eapp(A-B) (MDCK-MDR1 cell line; @ 5 μM, apical to basolateral, with P-gp inhibitor elacridar (2 μM))
CC(C)(O)CNC(=O)Cc1nc2cnc3[nH]ccc3c2n1[C@H]1CC[C@H](CC#N)CC1 [Ex. 1, 2-(1-((1r,4r)-4-(Cyanomethyl)cyclohexyl)-1,6-dihydroimidazo[4,5-d]pyrrolo[2,3-b]pyridin-2-yl)-N-(2-hydroxy-2-methylpropyl)acetamide] | 0.4 10^−6 cm/sec | 1.1 10^−6 cm/sec | 3.3 | 387 (≈ 158 µg/mL) | ^ | ^ | low systemic exposures | 92.2 | 8.6 | 0.4 | 7.4 | –
CC(C)(C#N)CNC(=O)Cc1nc2cnc3[nH]ccc3c2n1[C@H]1CC[C@H](CC#N)CC1 [Ex. 7, N-(2-Cyano-2-methylpropyl)-2-(1-((1r,4r)-4-(cyanomethyl)cyclohexyl)-1,6-dihydroimidazo[4,5-d]pyrrolo[2,3-b]pyridin-2-yl)acetamide] | – | – | – | 81 (≈ 33.8 µg/mL) | – | – | – | 98.4 | 5.6 | 0.2 | 4.8 | –
N#CC[C@H]1CC[C@H](n2c(CC(=O)NCC3(O)CC3)nc3cnc4[nH]ccc4c32)CC1 [Ex. 12, 2-(1-((1r,4r)-4-(Cyanomethyl)cyclohexyl)-1,6-dihydroimidazo[4,5-d]pyrrolo[2,3-b]pyridin-2-yl)-N-((1-hydroxycyclopropyl)methyl)acetamide] | – | – | – | – | – | – | – | 101 | 9.4 | 0.9 | 8.7 | –
N#CCC12CCC(NC(=O)Cc3nc4cnc5[nH]ccc5c4n3[C@H]3CC[C@H](CC#N)CC3)(CC1)C2 [Ex. 10, N-(4-(Cyanomethyl)bicyclo[2.2.1]heptan-1-yl)-2-(1-((1r, 4r)-4-(cyanomethyl)cyclohexyl)-1,6-dihydroimidazo[4,5-d]pyrrolo[2,3-b]pyridin-2-yl)acetamide] | – | – | – | 359 (≈ 169 µg/mL) | – | – | – | 87.5 | 6.5 | 1 | 9 | –
N#CC[C@H]1CC[C@H](n2c(CC(=O)NCC3CC3)nc3cnc4[nH]ccc4c32)CC1 [Ex. 3, 2-(1-((1r,4r)-4-(Cyanomethyl)cyclohexyl)-1,6-dihydroimidazo[4,5-d]pyrrolo[2,3-b]pyridin-2-yl)-N-(cyclopropylmethyl)acetamide] | < 0.5 10^−6 cm/sec | 16 10^−6 cm/sec | > 33 | – | ^ | ^ | low systemic exposures | 82.8 | 6.2 | 0.2 | 11.6 | –
N#CC[C@H]1CC[C@H](n2c(CC(=O)NC3CCOCC3)nc3cnc4[nH]ccc4c32)CC1 [Ex. 5, 2-(1-((1r,4r)-4-(Cyanomethyl)cyclohexyl)-1,6-dihydroimidazo[4,5-d]pyrrolo[2,3-b]pyridin-2-yl)-N-(tetrahydro-2H-pyran-4-yl)acetamide] | < 0.5 10^−6 cm/sec | 2.1 10^−6 cm/sec | > 4.5 | 198 (≈ 83.3 µg/mL) | – | – | – | 23.1 | 2.1 | 0.3 | 4.1 | 0.5 10^−6 cm/sec
N#CC[C@H]1CC[C@H](n2c(-c3c[nH]cn3)nc3cnc4[nH]ccc4c32)CC1 [Ex. 2, 2-((1r,4r)-4-(2-(1H-Imidazol-4-yl)imidazo[4,5-d]pyrrolo[2,3-b]pyridin-1(6H)-yl)cyclohexyl)acetonitrile] | – | – | – | – | – | – | – | – | – | – | 1.5 | –
N#CCCNC(=O)Cc1nc2cnc3[nH]ccc3c2n1[C@H]1CC[C@H](CC#N)CC1 [Ex. 4, N-(2-Cyanoethyl)-2-(1-((1r,4r)-4-(cyanomethyl)cyclohexyl)-1,6-dihydroimidazo[4,5-d]pyrrolo[2,3-b]pyridin-2-yl)acetamide] | – | – | – | – | – | ^ | low systemic exposures | 96.2 | 6.6 | 0.1 | 2.2 | –
N#CC[C@H]1CC[C@H](n2c(CC(=O)NCC3CCOCC3)nc3cnc4[nH]ccc4c32)CC1 [Ex. 6, 2-(1-((1r,4r)-4-(Cyanomethyl)cyclohexyl)-1,6-dihydroimidazo[4,5-d]pyrrolo[2,3-b]pyridin-2-yl)-N-((tetrahydro-2H-pyran-4-yl)methyl)acetamide] | – | 2.6 10^−6 cm/sec | > 8.7 | – | – | – | – | 28.2 | 1.4 | 0.1 | 1.1 | –
N#CC[C@H]1CC[C@H](n2c(CC(=O)NCC3(O)CCC3)nc3cnc4[nH]ccc4c32)CC1 [Ex. 8, 2-(1-((1r,4r)-4-(Cyanomethyl)cyclohexyl)-1,6-dihydroimidazo[4,5-d]pyrrolo[2,3-b]pyridin-2-yl)-N-((1-hydroxycyclobutyl)methyl)acetamide] | – | – | – | – | – | – | – | 75.6 | 7 | 0.4 | 6.6 | –
